Experimental data published in patent publication US5714488A, “Bis-heteroarylylmethoxyphenyl ketone derivatives as inhibitors of leukotriene biosynthesis” (Abbott Laboratories, priority 1996, dated 1998).
pIC50: −log10 of the molar value. Where a name gives a salt, the structure may show the parent alone.

What follows are compounds tested on leukotriene biosynthesis (assay: In vivo leukotriene inhibition, Ionophore A23187-Induced Rat Pleural Inflammation Model). Conditions: 3.O mg/kg; male rats; dosed in 0.2% methocel one hour prior to intrapleural A23187 (20 μg); lavage after thirty minutes.
Description: Inhibition of leukotriene biosynthesis in vivo was evaluated using the Ionophore A23187-Induced Rat Pleural Inflammation Model. Pleural inflammation was induced in male rats following the method of Rao, et al. (Rao, T. S., Currie, J. L., Shaffer, A. F., Isakson, P. C., Evaluation of 5-lipoxygenase Inhibitors, Zileuton, A-78773 and ICI D-2138 in an Ionophore (A-23187) Induced Pleural Inflammation Model in the Rat, Life Sciences, 53, 147 (1993)). Rats were dosed with experimental compounds in 0.2% methocel one hour prior to the intrapleural injection of the calcium ionophore, A23187. The rats where lightly anesthetized with Pentrane (Abbott Laboratories) and injected intrapleurally with 0.5 ml of 2% ethanol in injectable saline (Abbott Laboratories) containing 20 μg of A23187 (Cal BioChem-Novabiochem). Thirty minutes later the animals were euthanised and the pleural cavities lavaged with ice cold saline (Abbott Laboratories). The lavage fluid was then added to ice cold methanol (final methanol concentration 30%) to lyse cells and precipitate protein. Eicosanoids were determined by enzyme immunoassay by standard methods.
For `O=C(O)CON=CC=C(c1ccc(OCc2ccc3ccccc3n2)cc1)c1ccc(OCc2ccc3ccccc3n2)cc1` [Example 12], the “% Inhibition (In Vivo Leukotriene Inhibition in Rat Pleural Inflammation)” value was 60%.

The compounds below were run on 5-Lipoxygenase (assay: Inhibition of calcium ionophore-induced LTB4 formation in human polymorphonuclear leukocytes (PMNL)). Conditions: 15 min preincubation, calcium ionophore 8.3 μM, 10 min at 37° C., LTB4 by enzyme-linked immunoassay or HPLC, read-out: IC50 (In Vitro Inhibitory Potencies Against 5-Lipoxygenase From Stimulated LTB4 Formation in Human Polymorphonuclear Leukocytes).
Assay type: cell-based
Description: Inhibition of leukotriene biosynthesis was evaluated in vitro using an assay involving calcium ionophore-induced LTB4 expressed in human polymorphornuclear leukocytes (PMNL). Human PMNL isolated from heparinized (20 USP units/mL) venous blood (25 mL) obtained from healthy volunteers was layered over an equal volume of Ficoll-Hypaque Mono-Poly Resolving Medium (ICN Flow, Costa Mesa, CA) and centrifugated at 400×g for 40 minutes at 20° C. The PMNL was collected, erythrocytes lysed and washed 2× and suspended at 1.0×10^7 cells/mL in Earle's balanced salt solution with 17 mM Earle's HEPES. Aliquots of the cell suspension were preincubated with test compounds dissolved in DMSO (final concentration <2%) for 15 minutes and stimulated with calcium ionophore (final concentration 8.3 μM) for 10 min. at 37° C. Incubations were stopped with the addition of two volumes of ice-cold methanol followed by centrifuging the cell suspensions at 4° C. for 10 minutes at 450×g. The amount of LTB4 in the methanol extract was analyzed by enzyme-linked immunoassay or by HPLC analysis.
Compound `O=C(O)CON=C(c1ccc(OCc2ccc3ccc(Cl)cc3n2)cc1)c1ccc(OCc2ccc3ccc(Cl)cc3n2)cc1` [Example 6, bis(4-(7-chloro-2-quinolylmethoxy)phenyl)methyloximinoaceticacid] has a pIC50 of 6.66. Work on `O=C(O)CON=C(c1ccc(OCc2nc3ccccc3s2)cc1)c1ccc(OCc2nc3ccccc3s2)cc1` [Example 9, bis(4-(2-benzothiazoylmethoxy)-phenyl)methyloximinoacetic acid sodium salt] yielded a pIC50 of 7.40. For `O=C(O)CON=C(c1ccc(OCc2ccc3ccccc3n2)cc1)c1ccc(OCc2ccc3ccccc3n2)cc1` [Example 1, bis(4-(2-quinolylmethoxy)phenyl)methyloximinoacetic acid], the pIC50 was 7.49. Compound `O=C(O)C=C(c1ccc(OCc2ccc3ccccc3n2)cc1)c1ccc(OCc2ccc3ccccc3n2)cc1` [Example 11] has a pIC50 of 7.30. `ON=C(c1ccc(OCc2ccc3ccccc3n2)cc1)c1ccc(OCc2ccc3ccccc3n2)cc1` [Example 2, bis(4-(2-quinolylmethoxy)phenyl) ketoxime] showed a pIC50 of 7.40. Work on `O=C(O)CON=CC=C(c1ccc(OCc2ccc3ccccc3n2)cc1)c1ccc(OCc2ccc3ccccc3n2)cc1` [Example 12] yielded a pIC50 of 7.59.
